Reference: the NIST ThermoML archive (doi:10.1016/j.jct.2012.06.030)
Numbers after ± are expanded uncertainties.

Assay: molar heat capacity at constant pressure; xn = mol fraction of the nth substance listed
Settings: 101 kPa, Liquid, Small sample (50 mg) DSC, x2 = 0

O [water] + CCCCCC[n+]1ccc2ccccc2c1.N#C[S-]
Settings	molar heat capacity at constant pressure [J/K/mol]
288.15 K	75.9 ± 3.2
293.15 K	75.8 ± 3.2
298.15 K	75.7 ± 3.2
303.15 K	75.7 ± 3.2
308.15 K	75.6 ± 3.2
313.15 K	75.5 ± 3.2
318.15 K	75.5 ± 3.2
323.15 K	75.4 ± 3.2
328.15 K	75.4 ± 3.2
333.15 K	75.3 ± 3.2
338.15 K	75.3 ± 3.2
343.15 K	75.3 ± 3.2
